The structures appear in SMILES notation.

In one experiment the target is T1, SMARCA2 (Homo sapiens, UniProt P51531).
T1 construct: endogenous in cells
As to the kind of experiment: SMARCA2 Cellular Degradation Assay (Western blot analysis on Jess platform). It counts as cell-based. Particulars: for DC50 / Dmax: cellular degradation; for Fold Selectivity SMARCA4/2: ratio DC50 SMARCA4 / DC50 SMARCA2. The method in brief:
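Percent SMARCA2 remaining relative to vehicle was derived from capillary Western peak areas, each normalized to β-actin after capillary background subtraction. Samples were tumor-derived cell lysates, 5 μg total protein loaded, heated at 95° C. for 5 minutes before the Jess run.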

The target of a further experiment is T2, SMARCA4 (Homo sapiens, UniProt P51532).
T2 construct: endogenous in cells
T2 sequence (P51532 whole entry, species assumed): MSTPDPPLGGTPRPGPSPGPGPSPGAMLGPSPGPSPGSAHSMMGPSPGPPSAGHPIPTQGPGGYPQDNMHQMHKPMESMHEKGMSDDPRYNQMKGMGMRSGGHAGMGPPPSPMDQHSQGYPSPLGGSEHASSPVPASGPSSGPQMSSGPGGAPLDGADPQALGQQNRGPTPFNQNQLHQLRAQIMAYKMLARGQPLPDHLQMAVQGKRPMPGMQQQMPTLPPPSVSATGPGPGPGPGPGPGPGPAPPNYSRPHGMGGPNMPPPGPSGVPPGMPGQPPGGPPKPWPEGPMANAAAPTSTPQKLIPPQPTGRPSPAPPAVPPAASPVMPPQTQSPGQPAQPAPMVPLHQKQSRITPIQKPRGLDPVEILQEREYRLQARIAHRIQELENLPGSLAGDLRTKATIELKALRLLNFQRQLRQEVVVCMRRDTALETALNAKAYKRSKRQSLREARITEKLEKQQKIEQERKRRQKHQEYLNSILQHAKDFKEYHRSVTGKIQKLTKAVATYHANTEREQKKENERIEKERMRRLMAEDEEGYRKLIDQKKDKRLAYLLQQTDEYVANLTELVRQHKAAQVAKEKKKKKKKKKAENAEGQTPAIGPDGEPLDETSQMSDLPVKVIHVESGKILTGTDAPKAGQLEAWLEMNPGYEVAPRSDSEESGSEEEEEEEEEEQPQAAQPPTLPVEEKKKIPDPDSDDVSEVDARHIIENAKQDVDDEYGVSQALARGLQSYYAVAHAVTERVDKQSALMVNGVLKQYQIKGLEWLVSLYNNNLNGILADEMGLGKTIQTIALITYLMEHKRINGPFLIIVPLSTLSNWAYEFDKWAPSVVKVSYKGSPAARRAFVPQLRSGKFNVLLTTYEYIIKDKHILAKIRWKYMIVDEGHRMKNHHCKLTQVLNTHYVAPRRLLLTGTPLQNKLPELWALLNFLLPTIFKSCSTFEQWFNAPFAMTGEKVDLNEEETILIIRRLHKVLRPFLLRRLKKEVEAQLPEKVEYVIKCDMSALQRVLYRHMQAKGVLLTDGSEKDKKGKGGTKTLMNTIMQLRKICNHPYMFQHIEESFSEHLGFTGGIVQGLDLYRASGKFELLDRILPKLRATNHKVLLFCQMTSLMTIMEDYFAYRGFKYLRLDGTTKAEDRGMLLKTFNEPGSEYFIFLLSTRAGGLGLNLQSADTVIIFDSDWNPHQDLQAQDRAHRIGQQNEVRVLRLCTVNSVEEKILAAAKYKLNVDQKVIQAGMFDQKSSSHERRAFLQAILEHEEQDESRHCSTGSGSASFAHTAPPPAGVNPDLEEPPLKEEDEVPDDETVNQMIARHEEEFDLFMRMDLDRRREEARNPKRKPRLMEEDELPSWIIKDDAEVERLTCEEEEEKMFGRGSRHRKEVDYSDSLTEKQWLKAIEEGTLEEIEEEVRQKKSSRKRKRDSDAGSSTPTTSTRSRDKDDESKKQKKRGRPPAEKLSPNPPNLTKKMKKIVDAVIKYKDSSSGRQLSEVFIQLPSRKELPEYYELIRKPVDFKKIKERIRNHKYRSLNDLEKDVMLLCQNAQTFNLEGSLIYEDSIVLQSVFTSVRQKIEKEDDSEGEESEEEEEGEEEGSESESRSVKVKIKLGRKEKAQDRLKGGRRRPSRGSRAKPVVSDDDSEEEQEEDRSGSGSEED
As to the kind of experiment: Cellular degradation assay, SMARCA4 (Table 1). It counts as cell-based.

T1 sequence (P51531 whole entry, species assumed): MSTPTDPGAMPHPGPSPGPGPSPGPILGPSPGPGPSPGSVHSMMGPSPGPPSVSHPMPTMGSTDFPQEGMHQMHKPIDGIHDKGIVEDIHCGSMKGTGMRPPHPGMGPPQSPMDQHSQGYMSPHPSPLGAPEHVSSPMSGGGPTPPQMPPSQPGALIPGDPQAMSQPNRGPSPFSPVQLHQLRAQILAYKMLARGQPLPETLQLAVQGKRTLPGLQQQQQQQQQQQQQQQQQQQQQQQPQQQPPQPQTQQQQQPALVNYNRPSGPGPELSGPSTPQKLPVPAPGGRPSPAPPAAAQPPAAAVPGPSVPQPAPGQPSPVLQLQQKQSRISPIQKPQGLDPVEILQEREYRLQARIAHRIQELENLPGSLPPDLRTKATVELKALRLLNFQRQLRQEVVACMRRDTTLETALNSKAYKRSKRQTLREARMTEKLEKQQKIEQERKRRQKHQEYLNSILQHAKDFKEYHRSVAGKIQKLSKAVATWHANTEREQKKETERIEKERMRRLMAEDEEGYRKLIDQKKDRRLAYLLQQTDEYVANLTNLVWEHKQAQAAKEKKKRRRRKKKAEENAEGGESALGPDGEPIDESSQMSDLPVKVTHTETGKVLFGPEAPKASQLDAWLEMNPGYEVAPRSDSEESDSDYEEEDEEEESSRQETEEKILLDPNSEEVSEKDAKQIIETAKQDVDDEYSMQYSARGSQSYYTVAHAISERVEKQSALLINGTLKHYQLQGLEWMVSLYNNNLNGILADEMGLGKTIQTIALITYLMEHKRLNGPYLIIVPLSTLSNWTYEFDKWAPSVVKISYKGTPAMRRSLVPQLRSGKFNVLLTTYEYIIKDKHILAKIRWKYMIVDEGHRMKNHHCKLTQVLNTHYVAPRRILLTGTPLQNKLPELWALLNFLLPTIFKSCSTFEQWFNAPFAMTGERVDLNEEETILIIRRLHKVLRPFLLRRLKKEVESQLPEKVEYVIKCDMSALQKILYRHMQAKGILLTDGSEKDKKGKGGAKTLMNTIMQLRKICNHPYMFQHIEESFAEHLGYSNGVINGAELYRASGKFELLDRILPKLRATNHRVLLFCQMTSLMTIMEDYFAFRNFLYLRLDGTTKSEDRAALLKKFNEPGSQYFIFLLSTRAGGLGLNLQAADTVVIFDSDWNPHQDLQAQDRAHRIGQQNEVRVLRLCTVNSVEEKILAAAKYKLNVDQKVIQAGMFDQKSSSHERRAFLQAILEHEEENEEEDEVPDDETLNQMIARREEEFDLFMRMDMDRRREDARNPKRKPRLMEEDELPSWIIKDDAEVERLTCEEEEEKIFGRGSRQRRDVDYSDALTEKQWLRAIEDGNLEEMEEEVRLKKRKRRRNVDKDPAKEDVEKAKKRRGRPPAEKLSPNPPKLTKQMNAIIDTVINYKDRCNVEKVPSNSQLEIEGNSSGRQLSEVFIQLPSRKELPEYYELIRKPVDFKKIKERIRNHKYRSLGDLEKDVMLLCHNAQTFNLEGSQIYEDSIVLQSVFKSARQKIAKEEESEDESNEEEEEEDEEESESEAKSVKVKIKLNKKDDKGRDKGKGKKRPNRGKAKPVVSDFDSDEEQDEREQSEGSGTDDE

As a reminder, the DC50 is the concentration at which degradation of the target reaches its halfway point. Low values mean degradation at low concentration, high ones degradation only at high concentration. A word on the Dmax: it is the largest share of the target that was removed. A high value points to a fuller loss of target. In the case of `O=C1CCC(c2ccc(N3CCC(CCN4CC5(CCCN(C(=O)C6(c7ccccc7)CCN(c7cnnc(-c8ccccc8O)c7)CC6)C5)C4)CC3)cc2)C(=O)N1` (racemic) [Example 167, rac-(3R)-3-(4-{4-[2-(6-{1-[6-(2-hydroxyphenyl)pyridazin-4-yl]-4-phenylpiperidine-4-carbonyl}-2,6-diazaspiro[3.5]nonan-2-yl)ethyl]piperidin-1-yl}phenyl)piperidine-2,6-dione], on SMARCA2, the DC50 was found to be 40.1 nM, the Dmax amounted to 67.5% and the “Fold Selectivity SMARCA4/2” value is recorded as 16. At SMARCA4, this compound came in with a half-maximal degradation concentration (DC50) of 659 nM and a Dmax of 23.7%.
The matching figures for `Cn1c(=O)n(C2CCC(=O)NC2=O)c2ccc(N3CCC(CN4CCC5(CC4)CN(C(=O)C4(c6ccccc6)CCN(c6cnnc(-c7ccccc7O)c6)CC4)C5)CC3)cc21` (racemic) [Example 159, rac-(3R)-3-(5-{4-[(2-{1-[6-(2-hydroxyphenyl)pyridazin-4-yl]-4-phenylpiperidine-4-carbonyl}-2,7-diazaspiro[3.5]nonan-7-yl)methyl]piperidin-1-yl}-3-methyl-2-oxo-2,3-dihydro-1H-1,3-benzodiazol-1-yl)piperidine-2,6-dione]: 0.38 nM, 89.5%, 4, 1.45 nM and 82.2%.
Consider `O=C1CCC(c2ccc(OC3CCN(CC4CCN(C(=O)C5(c6ccccc6)CCN(c6cnnc(-c7ccccc7O)c6)CC5)CC4)CC3)cc2)C(=O)N1` (racemic) [Example 12, rac-(3R)-3-[4-({1-[(1-{1-[6-(2-hydroxyphenyl)pyridazin-4-yl]-4-phenylpiperidine-4-carbonyl}piperidin-4-yl)methyl]piperidin-4-yl}oxy)phenyl]piperidine-2,6-dione], for which, at SMARCA2, the half-maximal degradation concentration (DC50) stood at 144 nM, the maximal degradation (Dmax) stood at 61.7% and the “Fold Selectivity SMARCA4/2” value came out at 69.67. In addition, the maximal degradation (Dmax) on SMARCA4 stood at 36.9%.
The matching figures for `O=C1CC[C@H](c2ccc(N3CCC(CNC4CCN(C(=O)C5(Oc6ccccc6)CCN(c6cnnc(-c7ccccc7O)c6)CC5)CC4)CC3)cc2)C(=O)N1` [Example 180, (3R)-3-[4-(4-{[(1-{1-[6-(2-hydroxyphenyl)pyridazin-4-yl]-4-phenoxypiperidine-4-carbonyl}piperidin-4-yl)amino]methyl}piperidin-1-yl)phenyl]piperidine-2,6-dione]: 13.3 nM, 77.2%, 754 and 46.2%.
With `CC(N[C@H]1CC[C@@H](NC(=O)C2(c3ccccc3)CCN(c3cnnc(-c4ccccc4O)c3)CC2)CC1)C1CCN(c2ccc([C@H]3CCC(=O)NC3=O)cn2)CC1` (mixture of isomers) [Example 147, 1-[6-(2-hydroxyphenyl)pyridazin-4-yl]-4-phenyl-N-[(1,4s)-4-{[1-(1-{5-[(3rs)-2,6-dioxopiperidin-3-yl]pyridin-2-yl}piperidin-4-yl)ethyl]amino}cyclohexyl]piperidine-4-carboxamide], on SMARCA2, it took 13.7 nM to reach half-maximal degradation (DC50), the Dmax was 76.8% and the “Fold Selectivity SMARCA4/2” value stood at 3. In addition, at SMARCA4, it took 47.3 nM to reach half-maximal degradation (DC50) and the maximal degradation (Dmax) is 64.5%.
As for `O=C1CC[C@H](c2ccc(N3CCC(CN4CC(F)(F)C5(C4)CN(C(=O)C4(c6ccccc6)CCN(c6cnnc(-c7ccccc7O)c6)CC4)C5)CC3)cc2)C(=O)N1` [Example 52, (3R)-3-(4-{4-[(8,8-difluoro-2-{1-[6-(2-hydroxyphenyl)pyridazin-4-yl]-4-phenylpiperidine-4-carbonyl}-2,6-diazaspiro[3.4]octan-6-yl)methyl]piperidin-1-yl}phenyl)piperidine-2,6-dione], on SMARCA2, the Dmax stood at 44% and the “Fold Selectivity SMARCA4/2” value is reported as 1. Besides, the Dmax on SMARCA4 came to 13.7%.
Turning to `O=C1CC[C@H](c2ccc(N3CCC(CCN4CCC(C(=O)NCC5(c6ccccc6)CCN(c6cnnc(-c7ccccc7O)c6)CC5)C5CC54)CC3)cc2)C(=O)N1` (mixture of isomers) [Example 84, rac-2-(2-(1-(4-((r)-2,6-dioxopiperidin-3-yl)phenyl)piperidin-4-yl)ethyl)-n-((1-(6-(2-hydroxyphenyl)pyridazin-4-yl)-4-phenylpiperidin-4-yl)methyl)-2-azabicyclo[4.1.0]heptane-5-carboxamide], on SMARCA2, it took 4.23 nM to reach half-maximal degradation (DC50), the greatest degradation seen (Dmax) is 89.5% and the “Fold Selectivity SMARCA4/2” value is recorded as 11. On SMARCA4, this compound returned a DC50 of 46.5 nM and a Dmax of 61.9%.
The matching figures for `CN(CC1(c2ccccc2)CCN(c2cnnc(-c3ccccc3O)c2)CC1)C1CCN(C(=O)C2CCN(c3ccc(C4CCC(=O)NC4=O)cc3)CC2)CC1` (racemic) [Example 142, rac-(r)-3-(4-(4-(4-(((1-(6-(2-hydroxyphenyl)pyridazin-4-yl)-4-phenylpiperidin-4-yl)methyl)(methyl)amino)piperidine-1-carbonyl)piperidin-1-yl)phenyl)piperidine-2,6-dione]: 24.5 nM, 69.9%, 3, 84.8 nM and 60%.
On the same counts, the results for `CN(C(=O)C1(Oc2ccn(C)n2)CCN(c2cnnc(-c3ccccc3O)c2)CC1)C1CCN(CC2CCN(c3ccc([C@H]4CCC(=O)NC4=O)cc3)CC2)CC1` [Example 125, (r)-n-(1-((1-(4-(2,6-dioxopiperidin-3-yl)phenyl)piperidin-4-yl)methyl)piperidin-4-yl)-1-(6-(2-hydroxyphenyl)pyridazin-4-yl)-n-methyl-4-((1-methyl-1h-pyrazol-3-yl)oxy)piperidine-4-carboxamide] are 6.01 nM, 82%, 6, 36.9 nM and 62.5%.
On the same counts, the results for `CN(CC1(c2ccccc2)CCN(c2cnnc(-c3ccccc3O)c2)CC1)C(=O)C1CCN(CCC2CCN(c3ccc([C@H]4CCC(=O)NC4=O)cc3)CC2)C2(CCC2)C1` (mixture of isomers) [Example 146, rac-5-(2-(1-(4-((r)-2,6-dioxopiperidin-3-yl)phenyl)piperidin-4-yl)ethyl)-n-((1-(6-(2-hydroxyphenyl)pyridazin-4-yl)-4-phenylpiperidin-4-yl)methyl)-n-methyl-5-azaspiro[3.5]nonane-8-carboxamide] are 5.57 nM, 83%, 4, 21.9 nM and 72.8%.
As for `CC1(C(=O)N2CC3(CN(CC4CCN(c5ccc([C@H]6CCC(=O)NC6=O)cc5)CC4)C3)C2)CCN(c2cnnc(-c3ccccc3O)c2)CC1` [Example 23, (3R)-3-(4-{4-[(6-{1-[6-(2-hydroxyphenyl)pyridazin-4-yl]-4-methylpiperidine-4-carbonyl}-2,6-diazaspiro[3.3]heptan-2-yl)methyl]piperidin-1-yl}phenyl)piperidine-2,6-dione], at SMARCA2, the 50% degradation concentration (DC50) stood at 78.5 nM, the greatest degradation seen (Dmax) stood at 55.9% and the “Fold Selectivity SMARCA4/2” value is recorded as 127.44. The Dmax on SMARCA4 was found to be 39.1%.
`O=C1CC[C@@H](c2ccc(N3CCC(CN4CCC(NCC5(c6ccccc6)CCN(c6cnnc(-c7ccccc7O)c6)CC5)CC4)CC3)cc2)C(=O)N1` [Example 135, (s)-3-(4-(4-((4-(((1-(6-(2-hydroxyphenyl)pyridazin-4-yl)-4-phenylpiperidin-4-yl)methyl)amino)piperidin-1-yl)methyl)piperidin-1-yl)phenyl)piperidine-2,6-dione]: on SMARCA2, the half-maximal degradation concentration (DC50) turned out to be 20.7 nM, the Dmax amounted to 74.2% and the “Fold Selectivity SMARCA4/2” value came to 9. On SMARCA4, half-maximal degradation (DC50) was put at 191 nM and the Dmax worked out at 61.9%.
Turning to `COC1(C(=O)N2CC3(CN(CCC4CCN(c5ccc(C6CCC(=O)NC6=O)cc5)CC4)C3)C2)CCN(c2cnnc(-c3ccccc3O)c2)CC1` (racemic) [Example 82, rac-3-(4-(4-(2-(6-(1-(6-(2-hydroxyphenyl)pyridazin-4-yl)-4-methoxypiperidine-4-carbonyl)-2,6-diazaspiro[3.3]heptan-2-yl)ethyl)piperidin-1-yl)phenyl)piperidine-2,6-dione], at SMARCA2, half-maximal degradation (DC50) was put at 11.3 nM, the Dmax amounted to 71.2% and the “Fold Selectivity SMARCA4/2” value is 883. The same compound showed a Dmax on SMARCA4 of 23.8%.
`O=C1CCC(c2ccc(N3CCC(CNC4CCN(C(=O)C5(c6ccccc6)CCN(c6cnnc(-c7ccccc7O)c6)CC5)CC4)CC3)cc2)C(=O)N1` (racemic) [Example 7, rac-(3R)-3-[4-(4-{[(1-{1-[6-(2-hydroxyphenyl)pyridazin-4-yl]-4-phenylpiperidine-4-carbonyl}piperidin-4-yl)amino]methyl}piperidin-1-yl)phenyl]piperidine-2,6-dione]: the results for the greatest degradation seen (Dmax) at SMARCA2 and on SMARCA4 were 53.1% and 32%, respectively. On SMARCA2, the “Fold Selectivity SMARCA4/2” value is 1.
As for `O=C1CC[C@H](c2ccc(N3CCC(CN4CCC5(CC4)CN(C(=O)C4(c6ccccc6)CCN(c6cnnc(-c7ccccc7O)c6)CC4)C5)CC3)cc2)C(=O)N1` [Example 194, (3R)-3-(4-{4-[(2-{1-[6-(2-hydroxyphenyl)pyridazin-4-yl]-4-phenylpiperidine-4-carbonyl}-2,7-diazaspiro[3.5]nonan-7-yl)methyl]piperidin-1-yl}phenyl)piperidine-2,6-dione], at SMARCA2, the 50% degradation concentration (DC50) stood at 3.24 nM, the maximal degradation (Dmax) worked out at 88.1% and the “Fold Selectivity SMARCA4/2” value is 10. At SMARCA4, this compound yielded a half-maximal degradation concentration (DC50) of 31.3 nM and a maximal degradation (Dmax) of 70.3%.
Regarding `O=C1CC[C@H](c2ccc(N3CCC(CN4CCCC4C4CCN(C(=O)C5(c6ccccc6)CCN(c6cnnc(-c7ccccc7O)c6)CC5)CC4)CC3)cc2)C(=O)N1` (stereo partly drawn) [Example 40, (3R)-3-[4-(4-{[2-(1-{1-[6-(2-hydroxyphenyl)pyridazin-4-yl]-4-phenylpiperidine-4-carbonyl}piperidin-4-yl)pyrrolidin-1-yl]methyl}piperidin-1-yl)phenyl]piperidine-2,6-dione], on SMARCA2, the DC50 worked out at 317 nM, the maximal degradation (Dmax) turned out to be 50.3% and the “Fold Selectivity SMARCA4/2” value was found to be 31.55. On SMARCA4, this compound displayed a Dmax of 13.8%.
